Experimental data published in patent US9867833B2, “Serine/threonine kinase inhibitors” (GENENTECH, INC., priority 2013, dated 2018).

These compounds were tested against human ERK-2 (Mitogen Activated Kinase 1) (Homo sapiens (Human), UniProt P28482) (assay: ERK-2 Enzymatic Assay). Settings: human ERK-2 enzyme 5 nM, 25 μM ATP, S/T17 peptide substrate; isomer = configuration of CR2R3.
Type: biochemical
Summary of the method: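 Recombinant human ERK-2 (aa 8-360, N-terminal 6-His, E. coli) with 3-fold serially diluted compound. Per-well rates from linear fits converted to percent of control; IC50 by four-parameter fit.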

Chain of human ERK-2 (Mitogen Activated Kinase 1) (P28482 8-360): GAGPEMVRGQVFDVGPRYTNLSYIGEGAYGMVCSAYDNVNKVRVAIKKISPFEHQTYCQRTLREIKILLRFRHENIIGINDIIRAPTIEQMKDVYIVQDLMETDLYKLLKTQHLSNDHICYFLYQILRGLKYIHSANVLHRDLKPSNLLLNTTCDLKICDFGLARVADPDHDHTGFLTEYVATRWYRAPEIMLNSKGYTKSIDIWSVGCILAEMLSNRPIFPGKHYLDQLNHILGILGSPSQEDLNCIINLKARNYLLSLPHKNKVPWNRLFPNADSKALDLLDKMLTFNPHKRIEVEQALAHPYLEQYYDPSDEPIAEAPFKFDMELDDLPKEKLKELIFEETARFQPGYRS

**Q.** Which IC50 does the source give for `COc1cccc(CC2COc3cc(-c4ccnc(Nc5ccnn5C)n4)cc4nnc2n34)c1` (centres unmarked) [Compound I-81, 4-(3-(3-methoxybenzyl)-3,4-dihydro-5-oxa-1,2,2a^1-triazaacenaphthylen-7-yl)-N-(1-methyl-1H-pyrazol-5-yl)pyrimidin-2-amine] here?
**A.** < 20 pM

**Q.** How did the IC50 turn out when `Cn1nccc1Nc1cc(-c2cc3n4c(nnc4c2)C(Cc2ccc(F)c(Cl)c2)CO3)ccn1` (centres unmarked) [Compound I-83, 4-(3-(3-Chloro-4-fluorobenzyl)-3,4-dihydro-5-oxa-1,2,2a^1-triazaacenaphthylen-7-yl)-N-(1-methyl-1H-pyrazol-5-yl)pyridin-2-amine] was run?
**A.** 111 pM

**Q.** How did the IC50 turn out when `CN1C(=O)C[C@@H](Cc2ccc(Cl)cn2)c2nnc3cc(-c4ccnc(Nc5ccnn5C)c4)cc1n23` [Compound I-94, (R)-9-((5-chloropyridin-2-yl)methyl)-6-methyl-4-(2-((1-methyl-1H-pyrazol-5-yl)amino)pyridin-4-yl)-8,9-dihydro-1,2,2a^1,6-tetraazabenzo[cd]azulen-7(6H)-one] was run?
**A.** 598000 pM

**Q.** How did the IC50 turn out when `Cn1nccc1Nc1nccc(-c2cc3n4c(nnc4c2)C(C2CC2)CO3)n1` (centres unmarked) [Compound I-95, 4-(3-cyclopropyl-3,4-dihydro-5-oxa-1,2,2a^1-triazaacenaphthylen-7-yl)-N-(1-methyl-1H-pyrazol-5-yl)pyrimidin-2-amine] was run?
**A.** 751 pM

**Q.** For `Cn1nccc1Nc1cc(-c2cc3n4c(nnc4c2)C(Cc2cccc(Cl)c2)CO3)ccn1` (centres unmarked) [Compound I-96, 4-(3-(3-chlorobenzyl)-3,4-dihydro-5-oxa-1,2,2a^1-triazaacenaphthylen-7-yl)-N-(1-methyl-1H-pyrazol-5-yl)pyridin-2-amine], which IC50 is on record?
**A.** 149 pM

**Q.** `CN1C(=O)N(Cc2ccc(Cl)cc2)c2nnc3cc(-c4ccnc(Nc5ccnn5C)n4)cc1n23` [Compound I-98, 3-(4-chlorobenzyl)-5-methyl-7-(2-((1-methyl-1H-pyrazol-5-yl)amino)pyrimidin-4-yl)-3H-1,2,2a^1,3,5-pentaazaacenaphthylen-4(5H)-one] was tested. Which IC50 did it give?
**A.** 273 pM

**Q.** For `CN1C(=O)N(Cc2cc(F)cc(F)c2)c2nnc3cc(-c4ccnc(Nc5ccnn5C)n4)cc1n23` [Compound I-99, 3-(3,5-difluorobenzyl)-5-methyl-7-(2-((1-methyl-1H-pyrazol-5-yl)amino)pyrimidin-4-yl)-3H-1,2,2a^1,3,5-pentaazaacenaphthylen-4(5H)-one], which IC50 is on record?
**A.** 113 pM

**Q.** For `CN1C(=O)N(Cc2cccc(Cl)c2)c2nnc3cc(-c4ccnc(Nc5ccnn5C)n4)cc1n23` [Compound I-100, 3-(3-chlorobenzyl)-5-methyl-7-(2-((1-methyl-1H-pyrazol-5-yl)amino)pyrimidin-4-yl)-3H-1,2,2a^1,3,5-pentaazaacenaphthylen-4(5H)-one], which IC50 is on record?
**A.** < 20 pM
